Results taken from PubChem BioAssay AID330 (DTP/NCI, 2004).
Values joined by “and” are separate entries in the source; they are usually repeats but may differ in a detail not shown here. Equal entries are not always repeated. Toxic doses and inconclusive results are not listed. The calls were made as follows: active = survival T/C of 150% or more; inactive = T/C below 125% in these data.

System: P388 leukemia ip, CD2F1 mice, survival T/C
Assay: NCI In Vivo Anticancer Drug Screen. Data for tumor model P388 Leukemia (intraperitoneal) in CD2F1 (CDF1) mice
Conditions: endpoint: median survival time, higher = longer survival
Outline: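 Mice carrying the transplanted tumor received test compound or vehicle. Survival was recorded in each group, and the value is the treated-group measurement divided by that of the vehicle-treated control group.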

[1] = dose: 50.0 mg/kg/injection, schedule: Q01DX005 (ip), vehicle: saline with Tween-80
[2] = dose: 100.0 mg/kg/injection, schedule: Q01DX005 (ip), vehicle: saline with Tween-80
[3] = dose: 200.0 mg/kg/injection, schedule: Q01DX005 (ip), vehicle: saline with Tween-80
[4] = dose: 50.0 mg/kg/injection, schedule: Q01DX005 (ip), vehicle: saline
[5] = dose: 50.0 mg/kg/injection, schedule: Q01DX009 (ip), vehicle: Klucel (hydroxypropylcellulose) (HPC)
[6] = dose: 100.0 mg/kg/injection, schedule: Q01DX009 (ip), vehicle: Klucel (hydroxypropylcellulose) (HPC)
[7] = dose: 200.0 mg/kg/injection, schedule: Q01DX009 (ip), vehicle: Klucel (hydroxypropylcellulose) (HPC)
[8] = dose: 100.0 mg/kg/injection, schedule: Q01DX005 (ip), vehicle: saline
[9] = dose: 200.0 mg/kg/injection, schedule: Q01DX005 (ip), vehicle: saline
[10] = dose: 12.5 mg/kg/injection, schedule: Q01DX005 (ip), vehicle: saline with Tween-80
[11] = dose: 25.0 mg/kg/injection, schedule: Q01DX005 (ip), vehicle: saline with Tween-80
[12] = dose: 50.0 mg/kg/injection, schedule: Q04DX002 (ip), vehicle: saline with Tween-80
[13] = dose: 50.0 mg/kg/injection, schedule: Q01DX009 (ip), vehicle: saline with Tween-80
[14] = dose: 100.0 mg/kg/injection, schedule: Q01DX009 (ip), vehicle: saline with Tween-80
[15] = dose: 200.0 mg/kg/injection, schedule: Q01DX009 (ip), vehicle: saline with Tween-80
[16] = dose: 50.0 mg/kg/injection, schedule: Q01DX005 (ip), vehicle: Klucel (hydroxypropylcellulose) (HPC)
[17] = dose: 100.0 mg/kg/injection, schedule: Q01DX005 (ip), vehicle: Klucel (hydroxypropylcellulose) (HPC)
[18] = dose: 200.0 mg/kg/injection, schedule: Q01DX005 (ip), vehicle: Klucel (hydroxypropylcellulose) (HPC)
[19] = dose: 100.0 mg/kg/injection, schedule: Q01DX001 (ip), vehicle: saline with Tween-80
[20] = dose: 200.0 mg/kg/injection, schedule: Q01DX001 (ip), vehicle: saline with Tween-80
[21] = dose: 60.0 mg/kg/injection, schedule: Q01DX005 (ip), vehicle: saline with Tween-80
[22] = dose: 120.0 mg/kg/injection, schedule: Q01DX005 (ip), vehicle: saline with Tween-80
[23] = dose: 240.0 mg/kg/injection, schedule: Q01DX005 (ip), vehicle: saline with Tween-80

Measured: T/C

C#Cc1cccc(N=Cc2cc([N+](=O)[O-])cc(Br)c2O)c1
inactive: [1] 100 % of control | [2] 105 % of control | [3] 105 % of control

Nc1nc2c(c(-c3nc(N)nc4c3CCc3ccccc3-4)n1)CCc1ccccc1-2
inactive: dose: 60.0 mg/kg/injection, schedule: Q01DX005 (ip), vehicle: saline 105 % of control | dose: 120.0 mg/kg/injection, schedule: Q01DX005 (ip), vehicle: saline 99 % of control | dose: 240.0 mg/kg/injection, schedule: Q01DX005 (ip), vehicle: saline 107 % of control

N=C(N)COc1ccccc1
inactive: dose: 12.5 mg/kg/injection, schedule: Q01DX005 (ip), vehicle: saline 95 % of control | dose: 25.0 mg/kg/injection, schedule: Q01DX005 (ip), vehicle: saline 95 % of control | [4] 99 % of control and 101 % of control

CCN(CC)CCNc1c2ccc(Cl)cc2nc2ccc(OC)nc12
inactive: [5] 114 % of control | [6] 111 % of control | [7] 117 % of control

CCCCNC(c1ccc(N(CC)CC)cc1)C(Br)(Br)Br (centres undefined)
inactive: [4] 114 % of control | [8] 101 % of control | [9] 107 % of control

COc1ccc(OC)c2c(Cl)ccnc12
inactive: [10] 99 % of control | [11] 103 % of control | [1] 97 % of control

COc1ccc(/C=N\N=C(/[O-])c2ccccc2O)cc1.COc1ccc(/C=N\N=C(/[O-])c2ccccc2O)cc1.[Co+2]
inactive: [12] 93 % of control | dose: 100.0 mg/kg/injection, schedule: Q04DX002 (ip), vehicle: saline with Tween-80 98 % of control | dose: 200.0 mg/kg/injection, schedule: Q04DX002 (ip), vehicle: saline with Tween-80 96 % of control

CN(C)C(=S)SCNC(=S)NCSC(=S)N(C)C
inactive: dose: 6.25 mg/kg/injection, schedule: Q01DX009 (ip), vehicle: saline with Tween-80 104 % of control | dose: 12.5 mg/kg/injection, schedule: Q01DX009 (ip), vehicle: saline with Tween-80 110 % of control and 117 % of control | dose: 25.0 mg/kg/injection, schedule: Q01DX009 (ip), vehicle: saline with Tween-80 116 % of control and 121 % of control

CCOC(=O)c1ccc(NCCC(C)=O)cc1
inactive: [13] 91 % of control | [14] 86 % of control | [15] 91 % of control | dose: 400.0 mg/kg/injection, schedule: Q01DX009 (ip), vehicle: saline with Tween-80 95 % of control

CC(C)NC(=O)c1ccc(N/N=[N+](/C)[O-])cc1
inactive: dose: 6.25 mg/kg/injection, schedule: Q01DX005 (ip), vehicle: saline with Tween-80 97 % of control | [10] 99 % of control | [11] 98 % of control | [1] 92 % of control | [2] 102 % of control

NC(=S)N/N=C\c1nccc2ccccc12
inactive: dose: 6.25 mg/kg/injection, schedule: Q01DX009 (ip), vehicle: saline 90 % of control | dose: 12.5 mg/kg/injection, schedule: Q01DX009 (ip), vehicle: saline 99 % of control | dose: 50.0 mg/kg/injection, schedule: Q01DX009 (ip), vehicle: suspension in saline 94 % of control

Cn1c(NCCN2CCCCC2)c(C(=O)/C=C/c2ccccc2)c(=O)n(C)c1=O
inactive: [16] 104 % of control | [17] 107 % of control | [18] 103 % of control

Cn1nc(NC(=O)C(F)(F)F)c2ncc(-c3ccc(Cl)cc3)nc21
inactive: dose: 100.0 mg/kg/injection, schedule: Q04DX003 (ip), vehicle: saline with Tween-80 100 % of control | dose: 200.0 mg/kg/injection, schedule: Q04DX003 (ip), vehicle: saline with Tween-80 90 % of control | dose: 400.0 mg/kg/injection, schedule: Q04DX003 (ip), vehicle: saline with Tween-80 90 % of control

CC(C)C(O)(C(=O)OCC1=CCN2CCC(O)C12)C(C)O (centres undefined)
inactive: [4] 103 % of control | [8] 109 % of control | [9] 117 % of control

COC(=N)CCCCC(=N)OC
inactive: [4] 92 % of control | [8] 97 % of control | [9] 101 % of control

c1ccc(P2(c3ccccc3)(c3ccccc3)C3C4C5C6C4C2C6C53)cc1 (centres undefined)
inactive: dose: 50.0 mg/kg/injection, schedule: Q01DX001 (ip), vehicle: saline with Tween-80 109 % of control | [19] 104 % of control | [20] 113 % of control

Nc1c(CNCc2nnn(Cc3ccccc3)c2N)nnn1Cc1ccccc1
inactive: [13] 96 % of control | [14] 93 % of control | [15] 93 % of control

COc1ccc(N=C2SCC(=O)N2NC(=O)CN2C(=O)c3ccccc3C2=O)cc1
inactive: [19] 99 % of control | [20] 97 % of control | dose: 400.0 mg/kg/injection, schedule: Q01DX001 (ip), vehicle: saline with Tween-80 104 % of control

O=C(NCCCl)Nc1ccn(C(=O)NCCCl)c(=O)n1
inactive: [1] 95 % of control | [2] 100 % of control

C/C(=N\N=c1\sc2ccccc2n1CC(=O)O)c1ccccc1
inactive: [19] 97 % of control | [20] 89 % of control

CC(C)CC1CC(=O)C(=O)C(CC(C)C)C1 (centres undefined)
inactive: [16] 95 % of control | [17] 97 % of control | [18] 110 % of control

Nc1nnc(CCC(=O)Nc2cccc(C(F)(F)F)c2)n1N
inactive: [1] 107 % of control | [2] 105 % of control | [3] 90 % of control

Cc1csc2ccccc12
inactive: [13] 102 % of control | [21] 101 % of control | [14] 119 % of control | [22] 100 % of control | [15] 92 % of control | [23] 100 % of control

CCOC(=O)c1cc(Cl)nc2ccc3ccccc3c12
inactive: [1] 95 % of control | [2] 98 % of control | [3] 100 % of control

CC(=O)CCC(=O)CC(=O)CCC(=O)Nc1cc(Cl)ccc1Cl
inactive: [21] 107 % of control | [22] 106 % of control | [23] 101 % of control

CCOC(=O)N1N=C(c2ccccc2)OC2(N3CCOCC3)CCC(C(C)(C)C)CC12 (centres undefined)
inactive: [16] 100 % of control | [17] 101 % of control | [18] 97 % of control

C=C[CH2][Sn]([CH3])([CH3])[CH2]C=C
inactive: [4] 96 % of control | [8] 107 % of control

CCCCC(CC)CCC(CC(C)C)OCCC#N (centres undefined)
inactive: [6] 100 % of control | [7] 96 % of control | dose: 400.0 mg/kg/injection, schedule: Q01DX009 (ip), vehicle: Klucel (hydroxypropylcellulose) (HPC) 90 % of control

CC1(C)OC2COC3(C(=O)O)OC(C)(C)OC3C2O1 (centres undefined)
inactive: [16] 100 % of control | [17] 100 % of control | [18] 98 % of control

Cc1ccccc1C(C)(O)Cc1nccn1Cc1ccccc1 (centres undefined)
inactive: [21] 99 % of control | [22] 104 % of control | [23] 96 % of control

C[C@H]1O[C@H](C)[C@H](O)C2=C1C(=O)c1ccccc1C2=O
inactive: dose: 12.5 mg/kg/injection, schedule: Q04DX002 (ip), vehicle: saline with Tween-80 100 % of control and 95 % of control | dose: 25.0 mg/kg/injection, schedule: Q04DX002 (ip), vehicle: saline with Tween-80 99 % of control and 100 % of control and 96 % of control | [12] 99 % of control and 110 % of control and 94 % of control

CCNC(=O)C#CC(=O)NCC
inactive: [5] 92 % of control | [6] 92 % of control | [7] 95 % of control

Cc1ccc2sc(=S)sc2c1
inactive: [5] 89 % of control | [6] 99 % of control | [7] 96 % of control

C[C@]12CCC(=O)C=C1CC[C@H]1[C@@H]3C[C@@H](O)[C@](O)(C(=O)CO)[C@@]3(C)C[C@H](O)[C@@]12F
inactive: dose: 25.0 mg/kg/injection, schedule: Q01DX009 (ip), vehicle: saline 109 % of control | dose: 50.0 mg/kg/injection, schedule: Q01DX009 (ip), vehicle: saline 109 % of control | dose: 100.0 mg/kg/injection, schedule: Q01DX009 (ip), vehicle: saline 109 % of control

CC[N+](C)(CC)CCl
inactive: dose: 7.5 mg/kg/injection, schedule: Q01DX005 (ip), vehicle: saline 104 % of control | dose: 15.0 mg/kg/injection, schedule: Q01DX005 (ip), vehicle: saline 99 % of control

C=C1C(=O)OC2/C=C(\C)CC/C=C(/C=O)C(O)C(OC(=O)C(C)C)C12 (centres undefined)
inactive: dose: 5.0 mg/kg/injection, schedule: Q01DX009 (ip), vehicle: other 112 % of control | dose: 20.0 mg/kg/injection, schedule: Q01DX009 (ip), vehicle: other 94 % of control
